One data set deals with cells in suspension. As to conditions: reported; cited from earlier work.
In the next data set the test system is hASCs. The data set is described as follows: differentiation of hASCs into adipocytes (PLIN1, UCP1 expression). It counts as cell-based, human. The method, then: In order to determine the differentiation medium, different media were tested. These media were enriched with adipogenic factors then tested for the differentiation of the hASCs. […] It should also be noted that the medium n° 5 is an option to the EGM+ which has not been pursued further.

Data set [1] concerns hECs (endothelial cells of human adipose tissue).
Procedure: In order to determine the proliferation medium, five mediums, which are generally marketed for the proliferation of human endothelial cells, were tested.
The next data set concerns UCP1. As to conditions: described in the literature; cited from earlier work.

In the case of `C[C@@H](N)[C@H]1CC[C@H](C(=O)Nc2ccncc2)CC1` [Y27632], in the data set with cells in suspension, the “cell viability in suspension” value is listed as “increasing the cell viability in suspension”.

On to `NC(=O)c1ccc(-c2nc(-c3ccc4c(c3)OCO4)c(-c3ccccn3)[nH]2)cc1` [SB431542], for which the “expression of UCP1” value with hASCs (addition of SB431542 and maintenance of Rosiglitazone) was “allows the expression of UCP1”. Further, the “differentiation into adipocytes (PLIN1)” value in the data set on hASCs (dexamethasone and IBMX removed after the first three days, SB431542 added) is given as “allows restoring the differentiation”. The “viability of hECs” value in data set [1] was “no consequence upon the viability of hECs”. Consider `C[C@]12CCC(=O)C=C1CC[C@@H]1[C@@H]2[C@@H](O)C[C@@]2(C)[C@H]1CC[C@]2(O)C(=O)CO` [hydrocortisone, Hydrocortisone], for which the “expression of UCP1” value in the data set on UCP1 was “able to inhibit the expression of UCP1”.

The values are drawn from patent US20230279355A1, “METHOD FOR THE IN VITRO OR EX VIVO AMPLIFICATION OF STEM CELLS OF BROWN OR BEIGE ADIPOCYTES” (CENTRE NATIONAL DE LA RECHERCHE SCIENTIFIQUE, priority 2020, published 2023).
